Assay results published in paper PMC3931418 (Nature, 2014).

Legend:
[1] = tested on: δ-OR sodium-anchored residue mutants; assay: cAMP assay; format: cell-based, human
[2] = tested on: δ-OR; details: cited from earlier work
[3] = tested on: δ-OR sodium-anchored residue mutants; assay: δ-OR β-arrestin recruitment assay; details: sodium-anchored residue mutants compared to WT
[4] = molecular target: WT δ-OR (Homo sapiens, UniProt P41143); assay: δ-OR β-arrestin recruitment assay
[5] = molecular target: δ-OR (Homo sapiens, UniProt P41143); assay: cAMP assay; format: cell-based; details: receptors transfected with 15 µg DNA
[6] = molecular target: δ-OR WT (HEK293) (Homo sapiens, UniProt P41143); format: binding
[7] = molecular target: δ-OR N131A (HEK293) (Homo sapiens, UniProt P41143, N131A); format: binding
[8] = molecular target: δ-OR D95A (HEK293) (Homo sapiens, UniProt P41143, D95A)
[9] = molecular target: δ-OR D95N (HEK293) (Homo sapiens, UniProt P41143, D95N)
[10] = cooperativity of sodium with DADLE

δ-OR D95A (HEK293), sequence (P41143 whole entry D95A): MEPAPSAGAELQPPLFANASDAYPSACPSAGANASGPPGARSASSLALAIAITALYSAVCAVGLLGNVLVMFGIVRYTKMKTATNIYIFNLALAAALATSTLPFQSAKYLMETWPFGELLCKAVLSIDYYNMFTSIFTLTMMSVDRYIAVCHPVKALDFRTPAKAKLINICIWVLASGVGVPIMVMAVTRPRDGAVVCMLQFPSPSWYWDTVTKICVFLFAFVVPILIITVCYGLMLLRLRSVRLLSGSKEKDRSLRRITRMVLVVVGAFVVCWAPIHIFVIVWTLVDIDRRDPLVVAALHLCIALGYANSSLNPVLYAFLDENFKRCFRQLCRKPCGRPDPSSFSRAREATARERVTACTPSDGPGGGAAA
δ-OR D95N (HEK293), sequence (P41143 whole entry D95N): as the sequence (P41143 whole entry D95A) above, with A95N counted along it
δ-OR N131A (HEK293), sequence (P41143 whole entry N131A): as the sequence (P41143 whole entry D95A) above, with A95D, N131A counted along it
δ-OR WT (HEK293), sequence (P41143 whole entry): as the sequence (P41143 whole entry D95A) above, with A95D counted along it
WT δ-OR, sequence (P41143 whole entry): as the sequence (P41143 whole entry D95A) above, with A95D counted along it
δ-OR (Homo sapiens, UniProt P41143), sequence (P41143 whole entry): as the sequence (P41143 whole entry D95A) above, with A95D counted along it

C=CCN1C[C@H](C)N([C@H](c2ccc(C(=O)N(CC)CC)cc2)c2cccc(O)c2)C[C@H]1C
G-protein signaling ([1]; sodium-anchored residue mutants compared to WT): low to moderate reduction | effect of sodium ions on binding to the receptor [2]: minimally affected | β-arrestin signaling [3]: low to moderate reduction

O=C1/C(=C/c2ccccc2)C[C@@]2(O)[C@H]3Cc4ccc(O)c5c4[C@@]2(CCN3CC2CC2)[C@H]1O5 [BNTX]
agonist activity at the β-arrestin pathway [4]: no apparent agonist activity

Oc1ccc2c3c1O[C@H]1c4oc5ccccc5c4C[C@@]4(O)[C@@H](C2)N(CC2CC2)CC[C@]314 [naltriben]
agonist activity at the β-arrestin pathway [4]: no apparent agonist activity

Oc1ccc2c3c1O[C@H]1c4[nH]c5ccccc5c4C[C@@]4(O)[C@@H](C2)N(CC2CC2)CC[C@]314 [naltrindole]
activity at Gαi signaling [5]: weak partial agonist activity | agonist activity at the β-arrestin pathway [4]: no apparent agonist activity

[Na+] [sodium]
Hill Coefficient [6]: 0.56 ± 0.16 | Na+ pKB ± SEM ([6]; allosteric model, orthosteric ligand DADLE): 1.88 ± 0.10 | pα ± SEM [6, 10]: 1.93 ± 0.34 | α [6, 10]: 0.012 | Kb ([6]; read-out: Na+ KB, allosteric model, orthosteric ligand DADLE): 13.3 mM | Hill Coefficient [7]: NAE | Na+ KB [7]: NAE | Na+ pKB ± SEM [7]: NAE | pα ± SEM [7]: NAE | α [7]: NAE | Hill Coefficient [8]: NAE | Na+ KB [8]: NAE | Na+ pKB ± SEM [8]: NAE | pα ± SEM [8]: NAE | α [8]: NAE | Hill Coefficient [9]: NAE | Na+ KB [9]: NAE | Na+ pKB ± SEM [9]: NAE | pα ± SEM [9]: NAE | α [9]: NAE

DADLE
G protein agonist efficacy ([1]; Asp95Ala, Asn310Ala and Asn314Ala mutants): low to moderate reduction
